Measurements from patent US11603359B2, “Benzothiadiazepine compounds and their use as bile acid modulators” (Albireo AB, priority 2019, dated 2023).

Tests used:
human IBAT = target: T1, human IBAT (Homo sapiens, UniProt Q12908); experiment: IBAT (h/m) assay, human IBAT-overexpressing cells, 3H-taurocholic acid uptake; assay type: cell-based; conditions: 0.25 μM 3H-taurocholic acid + 5 μM cold taurocholic acid, 20 minutes, read-out: hIBAT IC50
T1 construct: expressed in transfected cells; Puromycin-selected IBAT-overexpressing cells
T1 sequence (Q12908 1-348): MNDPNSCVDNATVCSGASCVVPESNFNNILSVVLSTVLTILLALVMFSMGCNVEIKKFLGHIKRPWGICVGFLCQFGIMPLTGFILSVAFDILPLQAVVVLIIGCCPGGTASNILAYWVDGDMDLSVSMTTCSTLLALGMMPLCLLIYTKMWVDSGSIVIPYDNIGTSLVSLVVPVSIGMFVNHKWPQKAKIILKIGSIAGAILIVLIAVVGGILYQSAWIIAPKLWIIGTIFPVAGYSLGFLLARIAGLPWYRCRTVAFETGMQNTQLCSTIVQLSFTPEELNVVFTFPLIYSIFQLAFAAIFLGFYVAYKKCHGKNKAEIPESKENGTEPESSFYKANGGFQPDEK
Method: 10,000 cells (Human or Mouse IBAT-overexpressing cells) were seeded in 96-wells plate (Corning CLS3809) in 200 μL MEM-alpha medium (Gibco 12571-063) supplemented with 10% FBS (Gibco 10438026) containing Puromycin (Gibco A1113803) (10 μg/mL) and incubated at 37° C. in 5% CO2 for 48 hours. After incubation, media was decanted from the wells and cells were washed two times with 300 μL of basal MEM-alpha medium (FBS-free). After decanting basal MEM-alpha medium each time, plates were tapped against paper towel to ensure maximum removal of residual media. Test inhibitor dilutions (highest test concentration being 10 μM, 3-fold serial dilution, 10 points) prepared in DMSO (Sigma D2650) were added in incubation mix (maintaining 0.2% final DMSO concentration) containing 0.25 μM 3H-taurocholic acid (ARC ART-1368) and 5 μM of cold taurocholic acid (Sigma T4009). 50 μL of incubation mix containing test inhibitors was then added to the wells (in duplicate) and the plates were incubated for 20 minutes in a CO2 incubator at 37° C. After incubation, the reaction was stopped by keeping the plates on ice water mix for 2-3 minutes and then the incubation mix was aspirated completely from the wells. The wells were washed two times with 250 μL of chilled unlabelled 1 mM taurocholic acid dissolved in HEPES (Gibco 15630080)-buffered (10 mM) HBSS (Gibco 14175079) (pH 7.4). The plates were tapped against a paper towel after every wash to ensure maximum removal of blocking buffer.
100 μL of MicroScint-20 (PerkinElmer 6013621) was added to the wells and kept overnight at room temperature before reading the plates in TopCount NXT™ Microplate Scintillation and Luminescence Counter from PerkinElmer under 3H Test protocol (set at 120 seconds reading time per well).
All test compounds were provided in powder form at room temperature. 10 mM DMSO stocks of the test compounds were prepared, aliquoted and stored at −20° C. From the 10 mM DMSO stock of the compounds, a 3-fold serial dilution in DMSO was prepared to get a total of 10 dilutions of the test compounds. 0.5 μL of this dilution in DMSO was added to 250 μL of FBS-free basal media containing 3H-taurocholic acid and cold taurocholic acid to prepare the incubation mixture.

[1] = Bioavailability studies in rats; assay type: in vivo; conditions: male, Wistar, plasma, rat, 1 mg/kg intravenous vs 10 mg/kg oral
Method: (§1) Male mice (C57BL/6 or CD1) or Wistar rats of 8-9 weeks old were used. For each test compound, two groups of 3 animals each were used. One group was administered a single intravenous dose of 1 mg/kg (vehicle 100% DMSO) through the tail vein and the other group was administered a single oral dose of 10 mg/kg through gavage needle. The group that was administered an oral dose was fasted overnight. Blood samples were collected after 0.083, 0.25, 0.5, 1, 2, 4, 6, 8 and 24 hours following intravenous administration, and after 0.25, 0.5, 1, 2, 4, 6, 8 and 24 hours following oral administration. Blood samples were taken from saphenous vein. 0.2% EDTA was used as the anticoagulant. The samples were analyzed by a discovery grade bioanalytical method developed for the estimation of test compound in plasma, using an LC-MS/MS system.

[2] = Bioavailability studies in mice; assay type: in vivo, mice (C57BL/6 or CD1); conditions: male, mouse, plasma, 1 mg/kg intravenous vs 10 mg/kg oral
Method: as §1

| IC50 (human IBAT) | SMILES | also measured |
| --- | --- | --- |
| 5 nM | CCCCC1(CCCC)CN(c2ccccc2)c2cc(SC)c(OCC(O)C(=O)O)cc2S(=O)(=O)N1 (racemic) [Example 5, 3-((3,3-dibutyl-7-(methylthio)-1,1-dioxido-5-phenyl-2,3,4,5-tetrahydro-1,2,5-benzothiadiazepin-8-yl)oxy)-2-hydroxypropanoic acid] |  |
| 3 nM | CCCCC1(CC)CN(c2ccccc2)c2cc(N(C)C)c(OCCC(=O)O)cc2S(=O)(=O)N1 (racemic) [Example 11, 3-((3-Butyl-7-(dimethylamino)-3-ethyl-1,1-dioxido-5-phenyl-2,3,4,5-tetrahydro-1,2,5-benzothiadiazepin-8-yl)oxy)propanoic acid] |  |
| 2 nM | CCCCC1(CC)CN(c2ccccc2)c2cc(SC)c(OCCC(=O)O)cc2S(=O)(=O)N1 (single isomer, unassigned) [Example 4, 3-((3-butyl-3-ethyl-7-(methylthio)-1,1-dioxido-5-phenyl-2,3,4,5-tetrahydro-1,2,5-benzothiadiazepin-8-yl)oxy)propanoic acid] | bioavailability [1]: 90%; bioavailability ([2]; CD1 mice): 45% |
| 2 nM | CCCCC1(CCCC)CN(c2ccccc2)c2cc(SC)c(OCC(O)C(=O)O)cc2S(=O)(=O)N1 (single isomer, unassigned) [Example 7, 3-((3,3-dibutyl-7-(methylthio)-1,1-dioxido-5-phenyl-2,3,4,5-tetrahydro-1,2,5-benzothiadiazepin-8-yl)oxy)-2-hydroxypropanoic acid] |  |
| 3 nM | CCCCC1(CC)CN(c2ccccc2)c2cc(N(C)C)c(OCCC(=O)O)cc2S(=O)(=O)N1 (single isomer, unassigned) [Example 12, 3-((3-butyl-7-(dimethylamino)-3-ethyl-1,1-dioxido-5-phenyl-2,3,4,5-tetrahydro-1,2,5-benzothiadiazepin-8-yl)oxy)propanoic acid] |  |
| 7 nM | CCCCC1(CCCC)CN(c2ccccc2)c2cc(SC)c(OCCC(=O)O)cc2S(=O)(=O)N1 [Example 1, 3-((3,3-Dibutyl-7-(methylthio)-1,1-dioxido-5-phenyl-2,3,4,5-tetrahydro-1,2,5-benzothiadiazepin-8-yl)oxy)propanoic acid] | bioavailability ([1]; Na^+ salt): 98%; bioavailability ([2]; C57BL/6 mice): 34%; bioavailability ([2]; CD1 mice): 59% |
| 12 nM | CCCCC1(CCCC)CN(c2ccccc2)c2cc(SC)c(OC(C)CC(=O)O)cc2S(=O)(=O)N1 (centres unmarked) [Example 8, 3-((3,3-Dibutyl-7-(methylthio)-1,1-dioxido-5-phenyl-2,3,4,5-tetrahydro-1,2,5-benzothiadiazepin-8-yl)oxy)butanoic acid] |  |
| 21 nM | CCCCC1(CCCC)CN(c2ccccc2)c2cc(Cl)c(OCCC(=O)O)cc2S(=O)(=O)N1 [Example 9, 3-((3,3-dibutyl-7-chloro-1,1-dioxido-5-phenyl-2,3,4,5-tetrahydro-1,2,5-benzothiadiazepin-8-yl)oxy)propanoic acid] |  |
| 2 nM | CCCCC1(CCCC)CN(c2ccc(O)cc2)c2cc(SC)c(OCCC(=O)O)cc2S(=O)(=O)N1 [Example 10, 3-((3,3-dibutyl-5-(4-hydroxyphenyl)-7-(methylthio)-1,1-dioxido-2,3,4,5-tetrahydro-1,2,5-benzothiadiazepin-8-yl)oxy)propanoic acid] |  |
